Results from patent US20210196730A1, “COMPOUND AND USE THEREOF” (priority 2018, published 2021).
Read-outs that look alike come from different tables or passages of the source.

What was measured:
[1] = system: pancreatic cancer cell lines MIA PaCa-2, PANC-1, SW1990, and SW1990-GEM; assay: Cytotoxicity experiment of Callide (DNA assay method); type: cell-based; settings: 24 h
Experimental: Experimental materials: four pancreatic cancer cell lines, i.e., MIA PaCa-2, PANC-1, SW1990, and SW1990-GEM. Whole cell culture medium, microplate reader
Experimental Method: DNA Assay Method
Experimental process: pancreatic cancer cells were cultured, digested, resuspended into a cell suspension with medium, and seeded into 96-well plates, with 4000 cells per well. The experimental components are […], i.e., TP group, Cal group, TP and Cal physical mixed group (TP/Cal), Callide-DMSO without esterase group (Callide without PLE), Callide-DMSO with 10 U esterase group (Callide with 10 U PLE), Callide^NP without esterase group (Callide^NP without PLE), and Callide^NP with 10 U esterase group (Callide^NP with 10 U PLE). For each group, 8 concentrations of 5 nM, 10 nM, 20 nM, 40 nM, 80 nM, 100 nM, 200 nM, and 400 nM were prepared, and each concentration was repeated in six wells. After 24 h of administration, the drug solution was removed by suction, washed with PBS twice, added […], analyzed by a microplate reader, and plotted a relative survival rate curve of cells to calculate an IC50 of each compound.

[2] = system: pancreatic stellate cells; assay: Smooth actin and collagen in pancreatic stellate cells alone (immunofluorescence); type: cell-based, KPC mice; settings: 24 hours, TP 10 nM, Cal 100 nM, TP/Cal 10/100 nM, Callide^NP 100 nM
Description: (§1) Experimental materials: pancreatic stellate cells and pancreatic cancer cells cultured in transgenic mice. Among them, pancreatic cancer cells were transfected with luciferase gene by lentivirus transfection method.
(§2) Experimental method: in vitro co-culture, immunofluorescence histochemical analysis
(§3) Experimental process: the tumor tissues were taken from KPC mice that spontaneously developed with tumors, and the tumor tissues were dissected, and primary pancreatic stellate cells and pancreatic cancer cells were isolated by physical in vitro disruption and enzymatic hydrolysis, and cultured.
Pancreatic stellate cells alone were cultured in a 12-well plate, 100,000 cells per well, treated with TP (10 nM), Cal (100 nM), TP/Cal (10/100 nM), Callide^NP (100 nM) for 24 hours, and then contents of smooth actin and collagen of the cells in each well were analyzed with immunofluorescence staining.

[3] = system: pancreatic stellate cells and pancreatic cancer cells; assay: Smooth actin and collagen in co-cultured pancreatic stellate cells and pancreatic cancer cells (immunofluorescence); type: cell-based, KPC mice; settings: co-culture 1:1, 24 hours; TP 10 nM, Cal 100 nM, TP/Cal 10/100 nM, Callide^NP 100 nM
Description: as §1, §2, §3
Pancreatic stellate cells and pancreatic cancer cells were cultured in a 12-well plate at a ratio of 1:1, with a total of 100,000 cells per well, using TP (10 nM), Cal (100 nM), treated with TP/Cal (10/100 nM), and Callide^NP (100 nM), and incubated for 24 hours, and then the contents of smooth actin and collagen of the cells in each well were analyzed with immunofluorescence staining.

[4] = system: pancreatic stellate cells and pancreatic cancer cells co-implanted orthotopic model; type: in vivo; settings: for tumor suppression effect: TP 0.3, Cal 0.35, TP/Cal 0.3/0.35, Callide^NP 0.6 mg/kg, once every two days, 7 times
Experimental: Experimental materials: pancreatic stellate cells, pancreatic cancer cells transfected with luciferase; nude mice: strain Blab/C nude, 6-8 weeks old.
Experimental method: suspensions of pancreatic stellate cells and luciferase-transfected pancreatic cancer cells were mixed uniformly at a ratio of 1:1, and inoculated into the pancreas at a density of 10,000 cells/40 μL with an inoculation volume of 40 μL.
Experimental process: the two kinds of cells were digested and centrifuged, resuspended with PBS and mixed at a ratio of 1:1, and then the cell mixture was mixed with Matrigel at a ratio of 1:1 and pipetted uniformly. Nude mice underwent relevant operations under the premise of review by the Ethics Committee of Tsinghua University. […], of the uniformly pipetted cell suspension was injected into the pancreas with an insulin needle, the wound was sutured, and a sedative was injected subcutaneously. About one week after the cell injection, each mouse was intraperitoneally injected with 0.1 ml of […] solution. After 10 min, the mice were anesthetized with isoflurane, and an intensity of the fluorescent signal in the pancreas of the mice was detected with a live imaging system for small animal. Subsequently, the mice were randomly divided into groups, 7 mice in each group, and TP (0.3 mg/kg), Cal (0.35 mg/kg), TP/Cal (0.3/0.35 mg/kg), and Callide^NP (0.6 mg/kg) were administrated, respectively, once every two days for a total of 7 times. After each administration, the mice were weighed. After 4 times of administration, the intensity of the fluorescent signal in the pancreas of mice was detected with the live imaging system for small animal. After the administrations were all finished, the intensity of the fluorescent signal in the pancreas of the mice was detected again with the live imaging system for small animal, while recording a survival rate of mice. After the experiment, the tumor tissues of the mice were taken, and an expression of smooth actin and collagen in the tumor tissues was detected by tissue immunofluorescence staining (the experiment results are shown in FIG. 6).

MIA PaCa-2 cell line = assay: In vivo anti-tumor effect, mouse subcutaneous tumor model based on MIA PaCa-2; settings: for anti-tumor effect (tumor growth): compared with saline, TP 0.3, Cal 0.3, TP/Cal 0.3/0.35, Callide^NP 0.3 mg/kg (as TP), tail vein once a week
Experimental: Experimental Material: MIA PaCa-2 Cell Line
Experimental method: establishing a mouse subcutaneous tumor model based on the MIA PaCa-2 cell line, and evaluating an inhibitory effect on tumor as well as toxic and side effect of each compound of the experimental group after administration.
Experimental process: 0.1 ml of MIA PaCa-2 cell suspension was injected into axilla of the mice, and the growth of tumor was monitored. […] Dosages of administration: TP (0.3 mg/kg), Cal (0.3 mg/kg), TP/Cal (0.3/0.35 mg/kg), Callide^NP (0.3 mg/kg, administration dosage after it was theoretically completely degraded to TP), administered via tail vein injection once a week. The tumor size was measured every two days.

porcine liver esterase = assay: In vitro degradation experiment of Callide (HPLC); type: in vitro ADME; settings: absence of porcine liver esterase
Experimental: Experimental materials: phosphate buffer (PBS, Ph=7.2 to 7.4), porcine liver esterase, high performance liquid chromatography (HPLC)
Experimental Method: HPLC Method
Experimental process: 5 microliters of 1 mg/ml Callide (ethanol solution for solubilizing) in 5 ml of PBS buffer with or without porcine liver esterase, and stirred at 37 degrees Celsius for 1 min, 5 min, 10 min, 30 min, 1 h, 2 h, 4 h, 8 h, 12 h, 24 h, 48 h, respectively, 200 microliters of the solution were taken, filtered, and a concentration of Callide or calcipotriol in the solution was determined by HPLC.

[5] = Rat PK experiment of Callide^NP (chromatography-mass spectrometry); type: in vivo; settings: SD rats, Callide^NP 0.3 and 0.6 mg/kg; for concentration of free TP in plasma / plasma half-life: TP 0.3 mg/kg
Experimental: Experimental materials: rats, strain SD, 6-9 weeks old. Analytical instruments: Agilent 1290/6460 triple quadrupole mass spectrometer, made in the United States.
Experimental Method: Chromatography-Mass Spectrometry
Experimental process: 12 SD rats were randomly divided into 4 groups, with 3 rats in each group. TP (0.3 mg/kg), TP/Cal (0.3/0.35 mg/kg), Callide^NP (0.3 mg/kg), Callide^NP (0.6 mg/kg) were administered respectively. 300 μl of blood of each rat was collected through the orbit at 5 min, 15 min, 30 min, 1 h, 2 h, 4 h, and 8 h, respectively, centrifuged at 10000 rpm at 4° C., and the supernatant plasma was collected. The plasma was extracted with ethyl acetate/water, vortexed, sonicated, centrifuged at 4° C., the supernatant was evaporated to dryness under the protection of nitrogen, and then dissolved in mobile phase acetonitrile/water. After centrifugation, the supernatant was taken and injected.

[6] = system: humanized pancreatic cancer tissue; assay: In vivo anti-tumor effect, mouse subcutaneous tumor model of humanized pancreatic cancer tissue
Experimental: Experimental material: humanized pancreatic cancer tissue
Experimental method: establishing a mouse subcutaneous tumor model based on humanized pancreatic cancer tissue
Experimental process: a mouse subcutaneous tumor model of humanized pancreatic cancer tissue was established, TP (0.3 mg/kg) and Callide^NP (0.3 mg/kg, administration dosage after it was theoretically completely degraded to TP) were administrated via tail vein injection, once a day. One week later, the dosage of Callide^NP was increased to 0.6 mg/kg.

[7] = Toxicity experiment on mice in short- and long-term administration; settings: mouse, in vivo
Experimental: Experimental Material: BALB/C Mice
Experimental method: BALB/C mice were divided into 5 groups, including a saline control group and four drug administration groups of TP, Cal, TP/Cal, and Callide^NP groups. 5 mice in the control group, and 5 mice for each of 3 dosages, i.e., high, medium and low dosages in each experimental group, for a total of 65 mice. Dosages of administration: TP (0.3 mg/kg, 0.6 mg/kg, 1.2 mg/kg); Cal (0.6 mg/kg, 1.2 mg/kg, 1.8 mg/kg); TP/Cal (0.6 mg/kg, 1.2 mg/kg, 1.8 mg/kg); and Callide^NP (0.6 mg/kg, 1.2 mg/kg, 1.8 mg/kg), were administered once a week via tail vein injection.

SMILES: C=C1/C(=C\C=C2/CCC[C@@]3(C)C2CCC3[C@@H](C)/C=C/[C@@H](O)C2CC2)C[C@@H](O)C[C@@H]1O (some centres unmarked) [Cal, calcipotriol]
- killing effect on cancer cells ([1]; within the dosage range studied (5 nM to 400 nM)): no killing effect on cancer cells
- contents of smooth actin and collagen [2]: decreased
- expression levels of related proteins (smooth actin and collagen) [3]: significantly reduced
- tumor suppression effect [4]: no tumor suppression effect
- survival rate of mice ([4]; compared with the control group): no significant difference
- fluorescent signal of pancreatic cancer cells ([4]; live imaging, compared with the control group): no significant difference
- anti-tumor effect (tumor growth) (MIA PaCa-2 cell line): no anti-tumor effect
- toxic reactions / adverse states after administration (mouse, in vivo): none of the mice in the Cal group showed the above-mentioned adverse symptoms

SMILES: C=C1/C(=C\C=C2/CCC[C@@]3(C)C2CCC3[C@@H](C)/C=C/C(OC(=O)CCC(=O)O[C@@H]2[C@@]3(C(C)C)O[C@H]3[C@@H]3O[C@]34[C@]23O[C@H]3C[C@H]2C3=C(CC[C@@]24C)C(=O)OC3)C2CC2)C[C@@H](O)C[C@@H]1O (some centres unmarked) [Callide]
- degradation of Callide (porcine liver esterase; PBS, 37 degrees Celsius): could not be degraded
- concentration of Callide in the solution (porcine liver esterase; time extended to 48 h): remained unchanged
- cell killing effect ([1]; with 10 U porcine liver esterase): produce cell killing effect
- toxic and side effects on cells ([1]; without the addition of esterase): no toxic and side effects on cells
- average plasma residence time [5]: prolonged
- concentration of free TP in plasma [5]: significantly reduced
- plasma half-life [5]: prolonged
- apoptosis of tumor cells ([6]; immunohistochemical staining): accompanied by apoptosis of tumor cells
- fibrin content of the tumor tissue ([6]; immunohistochemical staining): significantly reduced
- long-term toxicity compared with TP [7]: significantly reduced

SMILES: CC(C)[C@]12O[C@H]1[C@@H]1O[C@]13[C@]1(O[C@H]1C[C@H]1C4=C(CC[C@@]13C)C(=O)OC4)[C@@H]2O [TP, triptolide]
- IC50 ([1]; Pancreatic cancer cell, all four types of pancreatic cancer cells): 20 nM
- concentration of free TP in plasma [5]: high
- plasma half-life [5]: short
- contents of smooth actin and collagen [2]: not significantly different
- expression levels of related proteins (smooth actin and collagen) [3]: did not change significantly
- toxicity ([4]; TP 0.3 mg/kg): obvious toxicity
- tumor suppression effect [4]: insignificant tumor suppression effect
- deaths ([4]; after seven administrations, TP 0.3 mg/kg): one mouse died
- body weight of the mice ([4]; mouse, in vivo): significantly reduced
- anti-tumor effect (tumor growth) (MIA PaCa-2 cell line): inhibits tumor growth more effectively than Callide^NP
- tumor size relative to other groups (MIA PaCa-2 cell line; mouse, in vivo): smaller than that of the TP/Cal and Callide^NP groups
- tumor weight (MIA PaCa-2 cell line; tumors isolated and weighed after dissection): significantly less weight than the control group
- inhibitory effect on tumor growth ([6]; first week, 0.3 mg/kg once a day via tail vein): significant inhibitory effect on tumor growth
- mortality (1.8 mg/kg, single administration): all mice died after a single administration
- morphology of spermatogonia and spermatocytes (TP group): severely damaged
- organs (anatomical results) (TP group): different degrees of necrosis
- relative weight of the testis (TP group): significantly reduced
- body weight (especially 1.2 mg/kg of TP): lost their weight significantly
- skin at the injection site on the tail (especially 1.2 mg/kg of TP): severe skin ulceration
- toxic reactions / adverse states after administration (high, medium and low dosages, once a week via tail vein injection): obvious toxic reactions
